From article PMC4724696 (Acta Pharmaceutica Sinica. B, 2016)

What was measured:
Format in all cases: cell-based
[1] = tested on: acetylation of histones H3, H4 and tubulin in HCT-116 colorectal cancer cells; assay: Western Blot analysis of Ac-H3, Ac-H4 and Ac-tubulin; details: HCT-116 cells, various concentrations, 24 h
SK-OV-3 = assay: Cell proliferation assay; details: Homo sapiens, SK-OV-3, 72 h, read-out: IC50 in cancer cell lines
BxPC3 = assay: Cell proliferation assay; details: Homo sapiens, BXPC-3, 72 h, read-out: IC50 in cancer cell lines
A375 = assay: Cell proliferation assay; details: Homo sapiens, A-375, 72 h, read-out: IC50 in cancer cell lines

O=C(CCCCCCC(=O)Nc1ccccc1)NO [SAHA, Vorinostat]
acetylation of histones H3, H4 and tubulin [1]: Increased acetylated histones and tubulin levels | IC50 (SK-OV-3): 3.57 ± 0.74 µM | IC50 (BxPC3): 2240 ± 610 nM | IC50 (A375): 1860 ± 420 nM
